In publication PMC12254266, “Multicolored sequential resonance energy transfer for detection of simultaneous ligand binding at G protein-coupled receptors” (Nature Communications, 2025):
Several values for one entry are separate records, joined by “and”; a condition that tells them apart may be missing. Identical values can stand only once.

Legend:
Parameters in all cases: expressed in transfected cells
FFA1-Nluc [1] = biological target: T1, FFA1-Nluc (Homo sapiens, UniProt O14842); assay: DISCo-BRET (endpoint, spectra scan, kinetics) with TUG-2591 and TUG-2597 at C terminal Nluc tagged FFA1; type: binding; settings: for Specific BRET (690/450): Sup Fig 3Bi
Outline: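 Flp-In T-REx 293 cells expressing Nluc-tagged FFA1 were induced with 100 ng/mL doxycycline for 24 h, then given Nano-Glo (1:800 final). Endpoint and spectral reads were taken 5 min after ligand at 37 °C; kinetics were read at 25 °C with sequential ligand additions. BRET ratios were taken from Nluc, NBD and SulfoCy5 emissions.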

FFA1-Nluc [2] = biological target: T1, FFA1-Nluc; assay: NanoBRET binding (saturation, kinetics) at C terminal Nluc tagged FFA1; settings: FFA1-Nluc, 95% confidence interval in parentheses
Protocol: Nluc-FFA1 or FFA1-Nluc Flp-In T-REx 293 cells were plated at 50,000 cells per well in poly-D-lysine coated white 96-well plates. Cells were cultured for 24 h in the plate before medium was replaced with medium containing 100 ng/mL of doxycycline to induce receptor expression. After culturing for a further 24 h, medium was removed, cells were washed with HBSS and incubated in HBSS for 30 min. To start the assay, NanoGlo substrate (Promega, N1110) was added to the cells at a 1:800 final dilution and incubated for 10 min at 37 °C. For endpoint assays, including both saturation and competition binding, test ligands were then added, including both fluorescent and unlabelled competing ligands as indicated, and plates incubated for a further 5 min at 37 °C. NanoBRET was then quantified in a CLARIOstar microplate reader (BMG Labtech) by measuring luminescent emission with the monochrometer set for the Nluc donor at 450–60 nm, and acceptor luminescent emission 540–60 nm (NBD), 600–80 nm (Cy3.5) or 690–100 nm (SulfoCy5), depending on which fluorophore was being tested. The acceptor/donor BRET ratio was then taken as a measure of fluorophore binding. For kinetic on then off NanoBRET experiments plates were washed the same way and substrate was added to the same concentration. However, 10 min after substrate was added plates were inserted into the CLARIOstar microplate reader set to 25 °C to take repeated measurements of luminescent emission for both the donor and the acceptor fluorophore being used. After 5 min of background measurements, the indicated concentration of fluorescent ligand was added using the plate reader injector and luminescent emission was monitored for ~10 min before the reader was paused to manually add a high concentration of appropriate competing ligand to initiate dissociation. The plate was returned to the reader and luminescence measurements were continued for a further 30 min to monitor dissociation of the fluorescent ligand. For kinetic experiments using multiple concentrations of fluorescent ligand, cells were placed in the plate reader immediately after the addition of Nano-Glo substrate and luminescent measurements were taken. After 5 min, the reader was paused to add the indicated concentrations of fluorescent ligand, before measurements were continued. To set non-specific binding for kinetic experiments, the indicated competing ligand was added 5 min before the addition of the fluorescent ligand.

FFA1 = FFA1 (Homo sapiens, UniProt O14842); assay: Ca2+ mobilisation (Fura2) in Flp-In T-REx 293 cells expressing Nluc-FFA1, FFA1-Nluc or untagged FFA1; type: cell-based
Outline: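 520 nm emission read at 340 and 380 nm excitation over 90 s spanning compound addition. Response taken as peak 340/380 ratio after subtracting pre-addition ratios.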

[3] = TUG-2597 […] first, then increasing TUG-2591 (Fig. 6H)

FFA1, sequence (O14842 whole entry): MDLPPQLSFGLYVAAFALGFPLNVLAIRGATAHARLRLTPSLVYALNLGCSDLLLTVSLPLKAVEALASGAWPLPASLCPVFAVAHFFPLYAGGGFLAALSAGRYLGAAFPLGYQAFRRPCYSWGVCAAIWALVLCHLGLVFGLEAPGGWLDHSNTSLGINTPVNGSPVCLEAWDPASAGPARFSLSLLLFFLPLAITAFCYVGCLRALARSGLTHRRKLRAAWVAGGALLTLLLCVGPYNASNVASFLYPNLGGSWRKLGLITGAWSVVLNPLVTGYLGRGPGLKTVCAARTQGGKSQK
T1 sequence (O14842 whole entry): as above

Kd (FFA1-Nluc [1]; FFA1-Nluc, […] TUG-2597, read-out: Kd, DISCo-BRET saturation SulfoCy5/NBD (Sup Fig 3Biii)): 64 nM | Kd (FFA1-Nluc [1]; FFA1-Nluc, […] TUG-2597, read-out: Kd, DISCo-BRET saturation SulfoCy5/NBD (Sup Fig 3Ciii)): 140 nM | Kd (FFA1-Nluc [1]; FFA1-Nluc, […] TUG-2597, read-out: Kd, DISCo-BRET saturation SulfoCy5/Nluc (Sup Fig 3Bi)): 57 nM | Kd (FFA1-Nluc [1]; FFA1-Nluc, […] TUG-2597, read-out: Kd, DISCo-BRET saturation SulfoCy5/Nluc (Sup Fig 3Ci)): 81 nM | kOff DISCo-BRET SulfoCy5/NBD (FFA1-Nluc [1]; TUG-2591 100 nM + TUG-2597 […], displacing ligand TUG-905 10 μM): 0.0006 s⁻¹ | kOn DISCo-BRET Single Concentration (FFA1-Nluc [1]; TUG-2591 100 nM added after TUG-2597 […]): 20000 M⁻¹ s⁻¹ | Kd (FFA1-Nluc [1]; TUG-2591 added after TUG-2597, read-out: Kd DISCo-BRET Single Concentration (kinetic)): 91 nM | kOff DISCo-BRET Multiple Concentration (FFA1-Nluc [1]; [3]): 0.00183 s⁻¹ | kOn DISCo-BRET Multiple Concentration (FFA1-Nluc [1]; [3]): 8333.33 M⁻¹ s⁻¹ | Kd (FFA1-Nluc [1]; TUG-2597 […] first, then increasing TUG-2591 (Fig. 6H), read-out: Kd DISCo-BRET Multiple Concentration (kinetic)): 220 nM | kOff DISCo-BRET Single Concentration (FFA1-Nluc [1]; based on the value calculated in the multiple ligand experiment in Fig. 6H): 0.00183 s⁻¹ | Kd (FFA1-Nluc [1]; in presence of […] TUG-2597, either construct, read-out: Kd, DISCo-BRET saturation (area under SulfoCy5 / NBD peaks)): 50 to 100 nM | kOff DISCo-BRET SulfoCy5/NBD (FFA1-Nluc [1]; tracers 1.0 μΜ / 3.16 μΜ, displacing ligand TUG-905 (30 μΜ)): 0.000533 s⁻¹ | Kd (FFA1-Nluc [2]; read-out: Kd, saturation BRET binding): 23 nM | BMax, saturation BRET binding (FFA1-Nluc [2]; specific BRET): 0.035 (0.032−0.038) | pEC50 (FFA1; Ca2+ data, mean±SEM, NR = No response): 6.47±0.16 | Ca2+ Response as a % of T360 Response (FFA1; FFA1-Nluc cells, log[ligand] -7, technical replicates): 8.16% | EMax (FFA1; percentage of response to 10 μM T360, NR = No response): 73±9%
Structure (SMILES): Cc1cc(OCCCNC(=O)CCCN2\C(=C/C=C/C=C/C3=[N+](C)c4ccc(S(=O)(=O)[O-])cc4C3(C)C)C(C)(C)c3ccccc32)ccc1-c1cccc(COc2ccc(CCC(=O)O)c(F)c2)c1 [TUG-2591]
Specific BRET (540/450) (FFA1-Nluc [1]; 10 nM TUG-2591, + TUG-2597): 0.2063 and 0.1967 and 0.1514 and 0.1434 and 0.1849 and 0.1798 | Specific BRET (690/450) (FFA1-Nluc [1]; TUG-2591 56 nM, with TUG-2597): 0.0527 and 0.0499 and 0.0741 and 0.0890 and 0.0785 and 0.0761 and 0.0666 and 0.0608 | Specific BRET (690/450) (FFA1-Nluc [1]; TUG-2591 100 nM, with TUG-2597): 0.0715 and 0.0673 and 0.0821 and 0.0713 and 0.0718 and 0.0721 and 0.1131 and 0.1106 | Specific BRET (540/450) (FFA1-Nluc [1]; Sup Fig 3Bii, TUG-2591 10 nM, with TUG-2597 + TUG-905): 0.2427 and 0.2316 and 0.2211 and 0.2363 and 0.1842 and 0.1961 | Specific BRET (540/450) (FFA1-Nluc [1]; Sup Fig 3Bii, TUG-2591 56 nM, with TUG-2597): 0.1505 and 0.1512 and 0.1284 and 0.1402 and 0.0985 and 0.0926 | Specific BRET (540/450) (FFA1-Nluc [1]; Sup Fig 3Bii, TUG-2591 56 nM, with TUG-2597 + TUG-905): 0.1690 and 0.2045 and 0.2352 and 0.2122 and 0.1905 and 0.1776 | Specific BRET (540/450) (FFA1-Nluc [1]; Sup Fig 3Bii, TUG-2591 100 nM, with TUG-2597): 0.1528 and 0.1591 and 0.1221 and 0.0973 and 0.0962 and 0.0870 | Specific BRET (540/450) (FFA1-Nluc [1]; Sup Fig 3Bii, TUG-2591 100 nM, with TUG-2597 + TUG-905): 0.1931 and 0.1764 and 0.2349 and 0.2150 and 0.1675 and 0.1714 | Specific BRET (690/540) (FFA1-Nluc [1]; Sup Fig 3Biii, TUG-2591 56 nM, with TUG-2597): 0.0349 and 0.0333 and 0.0476 and 0.0572 and 0.0548 and 0.0534 and 0.0437 and 0.0392 | Specific BRET (690/540) (FFA1-Nluc [1]; Sup Fig 3Biii, TUG-2591 100 nM, with TUG-2597): 0.0480 and 0.0458 and 0.0524 and 0.0450 and 0.0542 and 0.0749 and 0.0751 | Specific BRET (690/540) (FFA1-Nluc [1]; [TUG-2591] 100 nM, with TUG-2597): 0.0559 and 0.0537 and 0.05545 and 0.05225 and 0.03465 and 0.04165 | Ca2+ Response as a % of T360 Response (FFA1; FFA1-Nluc cells, log[ligand] -6.5, technical replicates): 55.49% and 52.86% and 28.95% and 51.39% and 72.16% and 71.58% and 70.75% and 43.70% and 49.38% | Ca2+ Response as a % of T360 Response (FFA1; Nluc-FFA1 cells, log[ligand] -6.5, technical replicates): 34.81% and 37.98% and 35.96% and 31.33% and 37.74% and 35.87% and 21.49% and 18.21% and 19.57% | Ca2+ Response as a % of T360 Response (FFA1; Nluc-FFA1 cells, log[ligand] -7, technical replicates): 17.82% and 28.31% and 29.67% and 8.27% and 1.38% and 7.74% and -0.10% and 0.12% | Ca2+ Response as a % of T360 Response (FFA1; log[Ligand] -5, single technical replicates): 61.66% and 51.52% and 46.84% and 86.56% and 82.15% and 71.83% and 71.15% and 53.72% | Ca2+ Response as a % of T360 Response (FFA1; log[Ligand] -5.5, single technical replicates): 62.71% and 47.16% and 58.62% and 85.53% and 80.90% and 77.51% and 55.09% and 51.22% | Ca2+ Response as a % of T360 Response (FFA1; log[Ligand] -6, single technical replicates): 62.82% and 60.50% and 58.53% and 87.03% and 71.98% and 71.50% and 53.51% and 60.26% and 56.70% | Ca2+ Response as a % of T360 Response (FFA1; log[Ligand] -6.5, single technical replicates): 34.81% and 37.98% and 35.96% and 31.33% and 37.74% and 35.87% and 21.49% and 18.21% and 19.57% | Ca2+ Response as a % of T360 Response (FFA1; log[Ligand] -7, single technical replicates): 17.82% and 28.31% and 29.67% and 8.27% and 1.38% and 7.74% and -0.10% and 0.12% and -1.53% | Ca2+ Response as a % of T360 Response (FFA1; log[Ligand] -8, single technical replicates): 10.54% and 11.17% and 19.68% and 8.20% and 7.07% and 9.22% and 0.11% and 1.85% and 0.30% | Ca2+ Response as a % of T360 Response (FFA1; log[Ligand] -9, single technical replicates): 1.04% and 5.22% and 4.78% and 4.50% and 4.79% and 3.13% and 2.97% and -0.0331% and -1.56% | Ca2+ Response as a % of T360 Response (FFA1; untagged FFA1 cells, log[ligand] -6.5, technical replicates): 69.40% and 67.64% and 73.36% and 82.87% and 85.96% and 73.97% and 51.16% and 43.14% and 56.15% and 83.71% and 86.53% and 111.93%
